Data reported in PMC12399242 (Acta Pharmaceutica Sinica. B, 2025).
“Also recorded” adds a separate entry of the source.

Tests used:
[1] = tested on: HIV-1 L100I; experiment: Antiviral activity against HIV-1 mutant L100I in MT-4 cells; assay type: cell-based; conditions: Human immunodeficiency virus 1, MT4, read-out: EC50 L100I
[2] = tested on: HIV-1 K103N + Y181C (RES056); experiment: Antiviral activity against HIV-1 double mutant K103N + Y181C (RES056) in MT-4 cells; assay type: cell-based; conditions: Human immunodeficiency virus 1, MT4, read-out: EC50 K103N + Y181C
[3] = target: T1, CYP2D6 (Homo sapiens, UniProt P10635); experiment: CYP enzyme inhibition assay, CYP2D6; assay type: in vitro ADME; conditions: human liver microsomes; read-out: IC50 CYP2D6
T1 construct: An incubation system of human liver microsomes (20 μL, 1.5 mg/mL); from tissue; host or cells: human liver microsomes
T1 sequence (P10635 whole entry): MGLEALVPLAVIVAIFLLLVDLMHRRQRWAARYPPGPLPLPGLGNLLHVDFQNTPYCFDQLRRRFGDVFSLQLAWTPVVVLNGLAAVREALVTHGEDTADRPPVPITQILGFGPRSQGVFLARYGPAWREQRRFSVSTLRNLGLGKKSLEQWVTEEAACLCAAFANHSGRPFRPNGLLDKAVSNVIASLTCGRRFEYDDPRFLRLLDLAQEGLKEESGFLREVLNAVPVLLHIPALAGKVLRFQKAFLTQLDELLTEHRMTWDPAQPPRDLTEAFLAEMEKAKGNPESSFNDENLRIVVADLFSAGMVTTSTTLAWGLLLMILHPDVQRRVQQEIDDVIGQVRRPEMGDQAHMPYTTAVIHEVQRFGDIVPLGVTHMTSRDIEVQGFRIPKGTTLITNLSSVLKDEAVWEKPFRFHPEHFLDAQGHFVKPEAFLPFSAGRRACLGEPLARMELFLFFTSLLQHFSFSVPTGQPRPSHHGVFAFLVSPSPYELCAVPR
Procedure: An incubation system of human liver microsomes (20 μL, 1.5 mg/mL), 20 μL probe substrates, and 50 μL test compound in Tris (0.1 mol/L) was pre-incubated at 37 °C for 10 min, and then initiated by adding NADPH (10 μL, 10 mmol/L). The system was incubated for another 15 min and subsequently terminated by 100 μL MeCN containing internal standard (propranolol, nadolol). Finally, the sample was centrifugated to obtain the supernatant for LC‒MS/MS analysis.

[4] = tested on: ICR mice; experiment: Acute toxicity assay in ICR mice; assay type: in vivo
Procedure: A12 was suspended in PEG400/normal saline (80/20, v/v) to achieve a concentration of 100 mg/ml. Sixteen ICR mice (eight male/eight female, 18–22 g) were assigned into 4 groups randomly, and each group contained 4 male mice or 4 female mice (n = 4). […] Over the next two weeks, the mortality, body weight, and abnormal behaviors of these mice were monitored daily. All mice were dissected after blood collection on Day 14, and several vital organs were removed and then assessed for pathological damage by HE staining. The collected blood was submitted for blood biochemistry testing.

[5] = Plasma protein binding assay (equilibrium dialysis); assay type: in vitro ADME; conditions: rat plasma, dialysis 37 °C, read-out: plasma protein binding rate (%PPB) (converted)
Procedure: The DMSO solution of A12 was diluted to 100 μmol/L with MeOH:H2O (1:1) and then added to the pre-loaded plasma to obtain plasma samples with a test concentration of 1 μmol/L. Subsequently, 100 μL of control dialysis buffer (phosphate buffer + 0.002% Tween-80) and 100 μL of A12 plasma sample were transferred to the receiver and the donor side of dialysis chambers, respectively, two copies of each sample. The dialysis system was incubated in a shaker (37 °C, 6 h). Upon completion, 20 μL of samples were removed from each of the buffer and plasma chambers. After adding aliquots control plasma, PBS (0.002% Tween-80) respectively, 250 μL methanol solution with internal standard was added into each sample. The solution was mixed and centrifuged (3800 rpm, 10 min) to obtain the supernatant for LC‒MS/MS analysis.

`Cc1cc(-c2ccc(C#N)cc2)cc(C)c1Nc1nc(Nc2ccc(C#N)cc2)ncc1F` [A12, 4′-((2-((4-Cyanophenyl)amino)-5-fluoropyrimidin-4-yl)amino)-3′,5′-dimethyl-[1,1′-biphenyl]-4-carbonitrile] gave an EC50 [1] of 3 ± 0.5 nM, an EC50 [2] of 44 ± 18 nM and an IC50 [3] of 14500 nM. The “HE staining of vital organs (brain, heart, liver, spleen, lung, kidney)” value ([4]; 2 g/kg i.g., Day 14) was “does not show any discernible pathological alteration in vital organs; also recorded: no notable pathological alterations were detected in the vital organs”, the “blood biochemical parameters (ALT, AST, CREA, UREA, CKMB)” value ([4]; 2 g/kg i.g., fourteen days after administration, vs control) was “no significant differences in blood biochemical parameters” and the mortality ([4]; male and female, single dose 2 g/kg i.g., 14 days) was “No instances of mortality were recorded”. The “acute toxicity, overall” value ([4]; single dose 2 g/kg) was “excellent tolerance at doses reaching 2 g/kg, without any manifestation of immediate toxicity”, the abnormal behavior ([4]; single dose 2 g/kg i.g., 14 days) was “no noteworthy deviations in behavior were detected” and the body weight growth ([4]; single dose 2 g/kg i.g., vs control group) was “growth patterns similar to that shown by the control group”. It also gave a fraction unbound at 6 h, 1 μmol/L [5] of 0.005.
